Entries after “also recorded” stand apart in the source; their conditions may differ.
How the values were obtained:
human TLR7 = target: T1, human TLR7 (Homo sapiens, UniProt Q9NYK1); test: HEK-Blue TLR7 NF-κB SEAP reporter assay; type: cell-based; conditions: HEK-Blue TLR7 cells
T1 construct: host or cells: HEK-Blue TLR7 (HEK293-derived)
T1 sequence (Q9NYK1 27-1049): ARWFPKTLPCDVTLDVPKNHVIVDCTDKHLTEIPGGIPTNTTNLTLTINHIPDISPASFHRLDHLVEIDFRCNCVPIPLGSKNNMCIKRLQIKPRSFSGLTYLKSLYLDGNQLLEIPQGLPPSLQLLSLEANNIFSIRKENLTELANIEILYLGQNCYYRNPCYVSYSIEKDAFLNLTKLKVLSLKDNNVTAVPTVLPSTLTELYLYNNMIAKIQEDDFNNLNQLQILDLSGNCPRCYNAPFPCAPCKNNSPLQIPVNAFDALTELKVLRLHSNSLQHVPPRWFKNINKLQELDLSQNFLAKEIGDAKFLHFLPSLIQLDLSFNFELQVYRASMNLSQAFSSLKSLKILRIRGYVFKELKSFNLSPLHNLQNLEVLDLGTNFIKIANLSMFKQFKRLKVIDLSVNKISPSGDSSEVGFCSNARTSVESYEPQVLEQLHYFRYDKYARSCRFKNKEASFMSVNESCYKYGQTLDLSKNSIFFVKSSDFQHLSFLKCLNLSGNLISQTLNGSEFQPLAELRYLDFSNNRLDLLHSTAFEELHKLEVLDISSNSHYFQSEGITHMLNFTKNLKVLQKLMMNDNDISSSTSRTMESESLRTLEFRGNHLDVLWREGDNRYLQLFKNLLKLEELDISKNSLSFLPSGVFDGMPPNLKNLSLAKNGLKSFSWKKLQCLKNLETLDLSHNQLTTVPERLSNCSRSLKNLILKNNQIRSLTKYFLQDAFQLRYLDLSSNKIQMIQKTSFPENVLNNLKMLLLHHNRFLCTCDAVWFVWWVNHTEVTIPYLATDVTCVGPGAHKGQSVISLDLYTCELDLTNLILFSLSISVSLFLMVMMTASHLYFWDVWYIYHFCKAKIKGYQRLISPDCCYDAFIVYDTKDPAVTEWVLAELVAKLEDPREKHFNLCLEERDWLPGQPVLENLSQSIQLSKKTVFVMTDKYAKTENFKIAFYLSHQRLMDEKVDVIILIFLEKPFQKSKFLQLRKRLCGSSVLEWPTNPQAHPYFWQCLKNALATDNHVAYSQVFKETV
Excerpt: The building blocks and synthesized conjugates were initially assessed for their receptor-specific activities toward NOD2, TLR7 and TLR8 using the commercially available HEK-Blue NOD2, TLR7 and TLR8 reporter cell lines. These cell lines were derived from HEK293 cells by cotransfection of human NOD2/TLR7/TLR8 and an NF-κB-inducible secreted embryonic alkaline phosphatase (SEAP). Activation of NOD2/TLR7/TLR8, and subsequently of NF-κB, leads to the expression and secretion of SEAP, the levels of which can be quantified colorimetrically. […]
3.1. Hek-Blue NOD2, TLR7 and TLR8 cells.
HEK-Blue NOD2, TLR7, and TLR8 cells (Invivogen, San Diego, CA, USA) were cultured according to the manufacturer instructions in Dulbecco’s modified Eagle’s medium (Sigma-Aldrich, St. Louis, MO, USA) supplemented with 10% heat-inactivated fetal bovine serum (Gibco), 2 mM L-glutamine (Sigma-Aldrich), 100 U/mL penicillin (Sigma-Aldrich), 100 µg/mL streptomycin (Sigma-Aldrich), and 100 µg/mL Normocin (Invivogen) for two passages. All subsequent passages of NOD2 and TLR8 cells were cultured in medium additionally supplemented with 100 µg/mL Zeocin and 30 µg/mL Blasticidin (Invivogen) and of TLR7 cells with 100 µg/mL Zeocin and 10 µg/mL Blasticidin. […]
The tested compounds were dissolved in DMSO and further diluted in culture medium to the desired final concentrations, such that the final DMSO concentration never exceeded 0.1%. […]
3.4 NOD2/TLR7/TLR8 NF-kB reporter assay
HEK-Blue NOD2 cells (25,000 cells/well), TLR7 and TLR8 cells (40,000 cells/well) were seeded in 96-well plates in 100 µL HEK-Blue detection medium (Invivogen, San Diego, CA, USA) and treated with […]
corresponding vehicle (0.1% DMSO). After 18 h of incubation (37 °C, 5% CO2), secreted embryonic

[1] = test system: human primary peripheral blood mononuclear cells (PBMCs); test: Cytokine release from peripheral blood mononuclear cells (LEGENDplex); type: cell-based; conditions: 1 μM, 18 h, Figure S2
Description: Third, the immunostimulatory potential of synthesized conjugates was assessed in human primary peripheral blood mononuclear cells (PBMCs) (Figure 3, Supporting Table), which represent a diverse array of immune cell subpopulations, providing a more physiologically relevant system for studying concurrent NOD2/TLR7 or NOD2/TLR7/TLR8 activation. […]
software (version 9; GraphPad Software, CA, USA). The experiments were run in duplicates, and repeated as at least three independent biological replicates.
3.5 Cytokine Release from Peripheral Blood Mononuclear Cells […]
growth medium and treated with the compounds (1 μM), or the corresponding vehicle (0.1% DMSO).
Cell-free supernatants were collected after 18 h of incubation (37 °C, 5% CO2) and stored at −80 °C until tested. Cytokine concentrations were determined with the LEGENDplex™ HU Essential Immune Response Panel (Biolegend) on an Attune NxT flow cytometer (Thermo Fisher Scientific, Waltham, MA). […] The data were analyzed using the FlowJo (Tree Star, Inc., Ashland, OR) and Prism (GraphPad, San Diego, CA) software.
Statistical significance was determined with one-way ANOVA with subsequent Dunnett’s multiple […]
The data were analyzed using Prism software (version 9; GraphPad Software, CA, USA). Statistical significance was determined according to the specific procedures outlined in each experiment. […]

[2] = 18 h, eight concentrations (1 nM to 10 μM), mean ± SEM

Row | SMILES | EC50 (human TLR7; [2]) [µM] | TLR7 agonistic activity (in words) (human TLR7; up to 10 μM) | Cytokine release versus combinations of 5 + 6 or 5 + 7 (in words) [1] | EC50 (human TLR7) [µM]
1 | CCOCc1nc2c(NC(=O)CCCCCNC(=O)CC[C@@H](NC(=O)[C@@H](NC(=O)CNC(=O)/C=C/c3ccc(O)c(OC)c3)C(C)C)C(=O)OCC)nc3ccccc3c2n1CC(C)(C)O [compound 32] | > 10 | devoid of TLR7 agonistic activity | devoid of any potential synergistic effect; also recorded: not significantly increased | 
2 | CCOCc1nc2c(N)nc3ccccc3c2n1CC(C)(C)NC(=O)CCCCCNC(=O)CC[C@@H](NC(=O)[C@@H](NC(=O)CNC(=O)/C=C/c1ccc(O)c(OC)c1)C(C)C)C(=O)OCC [compound 33] | 5.29 ± 1.5 |  | devoid of any potential synergistic effect; also recorded: not significantly increased | 5.3
